Where two headings read alike, the source gives them in different places.
Assays:
[1] = biological target: T1, proteasome in Molt-4 cells (human leukemia) (Homo sapiens, UniProt P20618+P28074); assay type: cell-based
T1 sequence (P28074 60-263): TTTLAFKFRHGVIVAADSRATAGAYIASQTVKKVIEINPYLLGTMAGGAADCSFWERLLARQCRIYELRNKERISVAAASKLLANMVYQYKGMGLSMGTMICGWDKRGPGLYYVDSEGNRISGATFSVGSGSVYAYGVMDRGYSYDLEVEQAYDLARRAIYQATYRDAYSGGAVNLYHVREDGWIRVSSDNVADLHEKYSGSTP
T1 sequence (P20618 29-241): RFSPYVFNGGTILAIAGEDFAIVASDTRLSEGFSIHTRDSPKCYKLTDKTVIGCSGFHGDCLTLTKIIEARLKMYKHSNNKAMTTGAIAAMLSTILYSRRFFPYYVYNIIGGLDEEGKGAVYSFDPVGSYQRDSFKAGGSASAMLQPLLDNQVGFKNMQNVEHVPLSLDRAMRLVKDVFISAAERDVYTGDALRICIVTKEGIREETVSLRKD
How it was run: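 Intact Molt-4 cells (6×10^6 cells/mL) in HEPES-buffered saline were preincubated with inhibitor 15 min at 37 °C, then given cell-permeable MeOSuc-FLF-AFC at 25 μM final.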

[2] = biological target: T2, 20S Human Erythrocyte Proteasome (HEP) (Homo sapiens, UniProt P20618+P28074); assay: Chymotrypsin-like activity of 20S Human Erythrocyte Proteasome (HEP), IC50 determination; assay type: biochemical; settings: assay of Example C, inhibition of HEP
T2 construct: 20S Human Erythrocyte Proteasome (HEP), purchased from Immatics Biotechnologies Inc; purchased Immatics Biotechnologies Inc., Tübingen, Germany; host or cells: human erythrocytes (natural source)
How it was run: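 20S proteasome at 0.2 μg/mL (about 0.6 nM catalytic sites) in 20 mM Tris with 0.04% SDS, preincubated 15 min at 37° C with inhibitor before Suc-LLVY-AMC (100 μM final). AMC fluorescence read in the linear range; triplicates, IC50 from concentration series.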

[3] = assay of Example E, inhibition of MOLT4; read-out: MOLT4 (EC50)

Row | EC50 [1, 3] | melting point | IC50 [2] | Structure (SMILES) | EC50 ([1]; read-out: MOLT4 (EC50); assay of Example E, inhibition of MOLT4)
1 | 0.2 to 2 µM | 120 to 123 °C | < 0.1 µM | CCCCc1ccc(C(=O)N[C@@H](CNS(C)(=O)=O)C(=O)N[C@@H](CC(C)C)B(O)O)cc1 [E.5.3, Boronic acid, [(1R)-1-[[(2S)-3-(methanesulfamido)-2-[(4-butyl)-benzoylamino]-1-oxopropyl]amino]-3-methylbutyl]] | –
2 | < 0.2 µM | 107 to 109 °C | < 0.01 µM | CCCCc1ccc(C(=O)N[C@@H](CNC(C)=O)C(=O)N[C@@H](CC(C)C)B(O)O)cc1 [E.5.8] | –
3 | < 0.2 µM | 130 to 132 °C | < 0.01 µM | CCCCc1ccc(C(=O)N[C@@H](CNS(=O)(=O)c2ccc(F)cc2)C(=O)N[C@@H](CC(C)C)B(O)O)cc1 [E.5.11, Boronic acid, [(1R)-1-[[(2S)-3-[4-fluoro-benzenesulfonamide]-2-[(4-butylbenzoyl)amino]-1-oxopropyl]amino]-3-methylbutyl]] | –
4 | 0.2 to 2 µM | 156 to 159 °C | < 0.01 µM | CCCCc1ccc(C(=O)N[C@@H](CNC(=O)c2ccc(S(N)(=O)=O)cc2)C(=O)N[C@@H](CC(C)C)B(O)O)cc1 [E.5.17, Boronic acid, [(1R)-1-[[(2S)-3-[4-sulfamylbenzoylamino]-2-[(4-butylbenzoyl)amino]-1-oxopropyl]amino]-3-methylbutyl]] | –
5 | < 0.2 µM | 168 to 170 °C | < 0.01 µM | CCCCc1ccc(C(=O)N[C@@H](CNC(=O)c2ccc(S(C)(=O)=O)cc2)C(=O)N[C@@H](CC(C)C)B(O)O)cc1 [E.5.20, Boronic acid, [(1R)-1-[[(2S)-3-[(4-methylsulfonyl)benzoylamino]-2-[(4-butylbenzoylamino)]-1-oxopropyl]amino]-3-methylbutyl]] | –
6 | < 0.2 µM | 175 to 180 °C | < 0.01 µM | CCCCc1ccc(C(=O)N[C@@H](CNC(=O)c2ccno2)C(=O)N[C@@H](CC(C)C)B(O)O)cc1 [E.5.25, Boronic acid, [(1R)-1-[[(2S)-3-(2-isoxazolylcarbonylamino)-2-[(4-butylbenzoylamino)]-1-oxopropyl]amino]-3-methylbutyl]] | –
7 | 0.2 to 2 µM | 120 to 123 °C | < 0.01 µM | CCCCc1ccc(C(=O)N[C@@H](CNS(=O)(=O)c2cn(C)cn2)C(=O)N[C@@H](CC(C)C)B(O)O)cc1 [E.5.26, Boronic acid, [(1R)-1-[[(2S)-3-[1-methyl-1H-imidazole-4-sulfamoyl]-2-[(4-butylbenzoyl)amino]-1-oxopropyl]amino]-3-methylbutyl]] | –
8 | 0.2 to 2 µM | 150 to 155 °C | < 0.01 µM | CC(C)C[C@H](NC(=O)[C@H](CNS(=O)(=O)c1ccc(F)cc1)NC(=O)c1ccc(Oc2ccccc2)cc1)B(O)O [E.5.30, Boronic acid, [(1R)-1-[[(2S)-3-[4-fluoro-benzenesulfonamide]-2-[(4-phenoxybenzoyl)amino]-1-oxopropyl]amino]-3-methylbutyl]] | –

The remaining lines, values behind:

Row | Structure (SMILES) | EC50 [1, 3] | melting point | IC50 [2] | EC50 ([1]; read-out: MOLT4 (EC50); assay of Example E, inhibition of MOLT4)
9 | CCCCCCCCCC(=O)N[C@@H](CNC(=O)c1cccs1)C(=O)N[C@@H](CC(C)C)B1O[C@@H]2C[C@@H]3C[C@@H](C3(C)C)[C@]2(C)O1 [D.24.9, Decanamide, N-[(1S)-1-[[[(1R)-1-[(3aS,4S,6S,7aR)-hexahydro-3a,5,5-trimethyl-4,6-methano-1,3,2-benzodioxaborol-2-yl]-3-methylbutyl]amino]carbonyl]-2-[(thien-2-ylcarbonyl)amino]ethyl]-] | < 0.2 µM | 110 °C | < 0.01 µM | –
10 | CCCCc1ccc(C(=O)N[C@@H](CNC(=O)c2ccc(S(N)(=O)=O)cc2)C(=O)N[C@@H](CC(C)C)B2O[C@@H]3C[C@@H]4C[C@@H](C4(C)C)[C@]3(C)O2)cc1 [D.24.16] | < 0.2 µM | 145 to 147 °C | < 0.01 µM | –
11 | CCCCCCCCCCCCC(=O)N[C@H](C(=O)N[C@@H](CC(C)C)B(O)O)[C@@H](C)O [E.3.3, Boronic acid, [(1R)-1-[[(2S,3R)-3-hydroxy-2-[(tridecanoyl)amino]-1-oxobutyl]amino]-3-methylbutyl]] | < 0.2 µM | 97 to 116 °C | < 0.01 µM | –
12 | CC(C)C[C@H](NC(=O)[C@@H](NC(=O)c1ccc(-c2ccccc2)cc1)[C@@H](C)O)B(O)O [E.3.5, Boronic acid, [(1R)-1-[[(2S,3R)-3-hydroxy-2-[(4-phenylbenzoyl)amino]-1-oxobutyl]amino]-3-methylbutyl]] | < 0.2 µM | 200 to 208 °C | < 0.01 µM | –
13 | CCCCc1ccc(C(=O)N[C@@H](CNC(=O)OCc2ccccc2)C(=O)N[C@@H](CC(C)C)B(O)O)cc1 [E.5.6] | < 0.2 µM | 92 to 96 °C | < 0.01 µM | –
14 | CCCCc1ccc(C(=O)N[C@@H](CNC(=O)c2cccn2C)C(=O)N[C@@H](CC(C)C)B(O)O)cc1 [E.5.16, Boronic acid, [(1R)-1-[[(2S)-3-[1-N-methyl-2-pyrrolylcarbonylamino]-2-[(4-butylbenzoyl)amino]-1-oxopropyl]amino]-3-methylbutyl]] | < 0.2 µM | 130 to 135 °C | < 0.01 µM | –
15 | CCCCCCCCCC(=O)N[C@@H](CNC(=O)c1cccnc1)C(=O)N[C@@H](CC(C)C)B(O)O [E.5.22, Boronic acid, [(1R)-1-[[(2S)-3-(nicotinoylamino)-2-(decanoylamino)-1-oxopropyl]amino]-3-methylbutyl]] | < 0.2 µM | 136 to 141 °C | < 0.01 µM | –
16 | CCCCc1ccc(C(=O)N[C@@H](CNC(=O)c2ccc(-c3nn[nH]n3)cc2)C(=O)N[C@@H](CC(C)C)B(O)O)cc1 [E.5.24, Boronic acid, [(1R)-1-[[(2S)-3-[4-(1H-tetrazolyl)-phenylcarbonylamino]-2-[(4-butylbenzoylamino)]-1-oxopropyl]amino]-3-methylbutyl]] | 0.2 to 2 µM | > 250 °C | < 0.01 µM | –
17 | CCCCc1ccc(C(=O)N[C@@H](CNS(=O)(=O)c2ccc(N3CCOCC3)nc2)C(=O)N[C@@H](CC(C)C)B(O)O)cc1.Cl [E.5.27, Boronic acid, [(1R)-1-[[(2S)-3-[6-morpholin-4-yl-pyridine-3-sulfamoyl]-2-[(4-butylbenzoyl)amino]-1-oxopropyl]amino]-3-methylbutyl] hydrochloride] | – | 182 to 184 °C | < 0.01 µM | < 0.2 µM
18 | CCCCc1ccc(C(=O)N[C@@H](CNC(=O)c2ccc(N3CCOCC3)nc2)C(=O)N[C@@H](CC(C)C)B(O)O)cc1 [E.5.28, Boronic acid, [(1R)-1-[[(2S)-3-(6-morpholinonicotinamide]-2-[(4-butylbenzoyl)amino]-1-oxopropyl]amino]-3-methylbutyl]] | < 0.2 µM | 178 to 180 °C | < 0.01 µM | –
19 | Cc1cc(C(=O)NC[C@H](NC(=O)c2ccc(Oc3ccccc3)cc2)C(=O)N[C@@H](CC(C)C)B(O)O)n(C)n1 [E.5.31] | < 0.2 µM | 145 to 148 °C | < 0.01 µM | –
20 | CC(C)C[C@H](NC(=O)[C@H](CNC(=O)Nc1ccccc1)NC(=O)c1ccc(Oc2ccccc2)cc1)B(O)O [E.5.32, Boronic acid, [(1R)-1-[[(2S)-3-(4-phenylureido]-2-[(4-phenoxybenzoyl)amino]-1-oxopropyl]amino]-3-methylbutyl]] | < 0.2 µM | 155 to 158 °C | < 0.01 µM | –

From patent publication US8546608B2, “Proteasome inhibitors and methods of using the same” (Cephalon, Inc., priority 2003, dated 2013)
